Legend:
Experiment in all cases: relative viability (nuclei count vs DMSO), 5 days (fraction); higher = more cells survive
[1] = compound: O=S(=O)(c1ccccc1)N(CC(F)(F)F)c1ccc(C(O)(C(F)(F)F)C(F)(F)F)cc1
In short: (§1)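 Viability was read as treated-well nuclei divided by vehicle-well nuclei, using the median across plates. Lung cancer cell lines in 1536-well plates were kept overnight at 37 °C, pinned with five √10-spaced library-drug doses, and after 5 days were Hoechst-stained, imaged at 4× and counted in MetaXpress. Plates passed only with control CV below 25% and at least one doubling.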

RO-3306 = compound: C1=CC2=C(C=CC(=C2)C=C3C(=O)NC(=NCC4=CC=CS4)S3)N=C1 [RO-3306]
In short: as §1

Foretinib = compound: COc1cc2c(Oc3ccc(NC(=O)C4(C(=O)Nc5ccc(F)cc5)CC4)cc3F)ccnc2cc1OCCCN1CCOCC1 [Foretinib] (anchor plate); settings: 0.25 µM
In short: as §1

RO-3306 + Pictilisib = compound: C1=CC2=C(C=CC(=C2)C=C3C(=O)NC(=NCC4=CC=CS4)S3)N=C1 [RO-3306] + CS(=O)(=O)N1CCN(Cc2cc3nc(-c4cccc5[nH]ncc45)nc(N4CCOCC4)c3s2)CC1 [Pictilisib] (partner 1 µM)
In short: (§2)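 Lung cancer cell lines were seeded in 1536-well plates and dosed by pin tool the next day, with either a single drug or a fixed anchor-drug dose combined with five library-drug doses (not always all listed) spaced in √10 steps. Five days later, one step fixed the cells and stained their nuclei (final 0.05% Triton X-100, 1% formaldehyde, 1 ug/ml Hoechst), and nuclei were counted on 4× images. Relative viability is the nuclei count in treated wells divided by the count in vehicle wells, and each value is the median of duplicate plates.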

RO-3306 + Crizotinib = compound: C1=CC2=C(C=CC(=C2)C=C3C(=O)NC(=NCC4=CC=CS4)S3)N=C1 [RO-3306] + C[C@@H](Oc1cc(-c2cnn(C3CCNCC3)c2)cnc1N)c1c(Cl)ccc(F)c1Cl [Crizotinib] (partner 1 µM)
In short: as §2

Cell Line | relative viability ([1]; 0.8 µM) | relative viability ([1]; 2.53 µM) | relative viability ([1]; 8 µM) | relative viability (RO-3306; 0.01 µM) | relative viability (RO-3306; 0.03162 µM) | relative viability (RO-3306; 0.1 µM) | relative viability (RO-3306; 0.3162 µM) | relative viability (RO-3306; 1 µM) | relative viability (Foretinib) | relative viability (RO-3306 + Pictilisib; first compound 0.01 µM) | relative viability (RO-3306 + Pictilisib; first compound 0.03162 µM) | relative viability (RO-3306 + Pictilisib; first compound 0.1 µM) | relative viability (RO-3306 + Pictilisib; first compound 0.3162 µM) | relative viability (RO-3306 + Pictilisib; first compound 1 µM) | relative viability (RO-3306 + Crizotinib; first compound 0.01 µM) | relative viability (RO-3306 + Crizotinib; first compound 0.03162 µM) | relative viability (RO-3306 + Crizotinib; first compound 0.1 µM) | relative viability (RO-3306 + Crizotinib; first compound 0.3162 µM) | relative viability (RO-3306 + Crizotinib; first compound 1 µM)
COR-L 105 | 0.947 | 0.786 | 0.918 | 0.859 | 0.784 | 0.798 | 0.906 | 0.948 | 1.07 | 0.355 | 0.364 | 0.361 | 0.47 | 0.366 | 0.757 | 0.794 | 0.781 | 0.768 | 0.673
NCI-H2228 | 1.08 | 0.962 | 0.937 | 1.07 | 0.96 | 1.09 | 1 | 0.696 | 0.886 | 0.456 | 0.37 | 0.363 | 0.381 | 0.269 | 0.471 | 0.335 | 0.408 | 0.445 | 0.541
EBC-1 | 0.934 | 0.769 | 0.721 | 1.04 | 0.807 | 1.01 | 1.14 | 1.01 | 0.108 | 0.454 | 0.327 | 0.397 | 0.448 | 0.286 | 0.206 | 0.233 | 0.202 | 0.181 | 0.205
NCI-H1437 | 0.95 | 0.877 | 0.849 | 1.03 | 0.942 | 0.926 | 1.03 | 1.08 | 1.24 | 0.403 | 0.364 | 0.372 | 0.472 | 0.449 | 1.13 | 0.682 | 0.988 | 1.01 | 1.03
LOU-NH91 | 0.984 | 0.968 | 1.05 | 0.931 | 0.914 | 0.934 | 0.918 | 0.852 | 0.94 | 0.512 | 0.528 | 0.522 | 0.533 | 0.406 | 0.938 | 0.728 | 0.739 | 0.706 | 0.685
LC-2-ad | 0.992 | 0.936 | 0.892 | 0.955 | 0.85 | 0.929 | 1.02 | 0.95 | 0.973 | 0.43 | 0.275 | 0.377 | 0.488 | 0.428 | 0.404 | 0.416 | 0.397 | 0.425 | 0.368
A549 | 1.07 | 0.914 | 0.886 | 1.13 | 0.811 | 0.994 | 1 | 1.05 | 0.951 | 0.551 | 0.485 | 0.477 | 0.504 | 0.323 | 0.872 | 0.705 | 0.751 | 0.687 | 0.706
PC-3 [JPC-3] | 1.06 | 1.06 | 1 | 1.03 | 0.929 | 1.03 | 1.01 | 1.06 | 1.01 | 0.725 | 0.717 | 0.672 | 0.769 | 0.882 | 1.03 | 0.971 | 0.965 | 1.03 | 0.951
NCI-H1734 | 1.21 | 1.01 | 0.887 | 1.01 | 0.808 | 0.912 | 0.991 | 0.9 | 0.84 | 0.53 | 0.435 | 0.468 | 0.452 | 0.447 | 0.714 | 0.656 | 0.694 | 0.624 | 0.623
NCI-H520 | 1.1 | 0.963 | 0.982 | 1.05 | 0.834 | 1.01 | 1.04 | 0.957 | 0.745 | 0.307 | 0.266 | 0.283 | 0.312 | 0.314 | 0.877 | 0.423 | 0.772 | 0.825 | 0.748
HOP-62 | 1.02 | 0.923 | 0.837 | 1.09 | 0.966 | 1.06 | 1.01 | 1.07 | 1.12 | 0.898 | 0.564 | 0.759 | 0.686 | 0.471 | 1.2 | 1.09 | 0.973 | 1.05 | 0.891
NCI-H1703 | 0.846 | 0.776 | 0.696 | 1.17 | 0.837 | 0.969 | 0.751 | 0.906 | 0.347 | 0.241 | 0.221 | 0.237 | 0.241 | 0.254 | 0.951 | 0.418 | 0.719 | 0.91 | 0.568
NCI-H650 | 0.946 | 0.814 | 0.989 | 0.834 | 0.803 | 0.938 | 0.992 | 0.945 | 1.02 | 0.983 | 0.928 | 0.792 | 0.777 | 0.916 | 0.56 | 0.648 | 0.694 | 0.691 | 0.703
NCI-H1993 | 0.987 | 0.831 | 0.711 | 0.808 | 0.719 | 0.893 | 0.849 | 0.941 | 0.782 |  | 0.956 | 0.686 | 0.743 | 0.897 |  | 0.803 | 0.895 | 0.867 | 0.817
IA-LM | 0.924 | 0.829 | 0.756 | 1.05 | 0.683 | 0.89 | 1.05 | 0.869 | 1.13 | 0.339 | 0.242 | 0.311 | 0.278 | 0.36 | 0.905 |  | 0.923 | 1.11 | 0.546
NCI-H2023 | 1.11 | 0.885 | 0.766 | 1.18 | 0.803 | 0.901 | 1 | 0.858 | 0.893 | 0.168 | 0.241 | 0.225 | 0.219 | 0.167 | 0.644 | 0.6 | 0.612 | 0.593 | 0.621
NCI-H647 | 1.14 | 0.849 | 0.877 | 0.881 | 0.841 | 0.928 | 1.07 | 0.864 | 1.17 | 0.326 | 0.464 | 0.401 | 0.454 | 0.299 | 1.42 | 0.869 | 1.02 | 1.06 | 1.15
